# Laboratory results taken from US5441941A, “1,2-dihydroellipticines with activity against CNS specific cancer” (The United States of America as represented by the …, priority 1993, dated 1995).
# How the values were obtained:
# MALME-3M = assay: NCI in vitro screen, SRB percent growth, Melanoma
# SK-MEL-28 = assay: NCI in vitro screen, SRB percent growth, Melanoma
# XF 498 = assay: NCI in vitro screen, SRB percent growth, CNS Cancer
# ACHN = assay: NCI in vitro screen, SRB percent growth, Renal Cancer
# SF-295 = assay: NCI in vitro screen, SRB percent growth, CNS Cancer
# SK-MEL-2 = assay: NCI in vitro screen, SRB percent growth, Melanoma
# NCI-H460 = assay: NCI in vitro screen, SRB percent growth, Non-Small Cell Lung Cancer
# OVCAR-5 = assay: NCI in vitro screen, SRB percent growth, Ovarian Cancer
# UACC-62 = assay: NCI in vitro screen, SRB percent growth, Melanoma
# M19-MEL = assay: NCI in vitro screen, SRB percent growth, Melanoma
# 786-0 = assay: cells; conditions: Homo sapiens
# HL-60 (TB) = assay: NCI in vitro screen, SRB percent growth, Leukemia
# SNB-19 = assay: NCI in vitro screen, SRB percent growth, CNS Cancer
# OVCAR-8 = assay: NCI in vitro screen, SRB percent growth, Ovarian Cancer
# KM20L2 = assay: cells; conditions: Homo sapiens
# SK-MEL-5 = assay: NCI in vitro screen, SRB percent growth, Melanoma
# [1] = Log10 Concentration -4.0, 100 µM
# [2] = Log10 Concentration -7.0, 0.1 µM
# [3] = 786-0, read-out: Percent Growth
# [4] = KM-20L2, read-out: Percent Growth
smiles,measurement,setting,value
Cc1ccc2[nH]c3c(C)c4c(c(C)c3c2c1)CN(C)C=C4 [Formula XI],Percent Growth,MALME-3M; [1],-86%
same,Percent Growth,MALME-3M; Log10 Concentration -5.0,-40%
same,Percent Growth,"MALME-3M; Log10 Concentration -6.0, 1 µM",78%
same,Percent Growth,MALME-3M; [2],115%
same,Percent Growth,MALME-3M; Log10 Concentration -8.0,113%
same,TGI,MALME-3M; PG=0,4.58 µM
same,GI50,MALME-3M; PG=+50,1.72 µM
same,CC50,"MALME-3M; read-out: LC-50, PG=-50",16.4 µM
same,Percent Growth,SK-MEL-28; [1],-95%
same,Percent Growth,SK-MEL-28; Log10 Concentration -5.0,-61%
same,Percent Growth,"SK-MEL-28; Log10 Concentration -6.0, 1 µM",108%
same,Percent Growth,SK-MEL-28; [2],115%
same,Percent Growth,SK-MEL-28; Log10 Concentration -8.0,114%
same,TGI,SK-MEL-28; PG=0,4.37 µM
same,GI50,SK-MEL-28; PG=+50,2.21 µM
same,CC50,"SK-MEL-28; read-out: LC-50, PG=-50",8.62 µM
same,Percent Growth,XF 498; [1],-57%
same,Percent Growth,XF 498; Log10 Concentration -5.0,-33%
same,Percent Growth,"XF 498; Log10 Concentration -6.0, 1 µM",46%
same,Percent Growth,XF 498; [2],98%
same,Percent Growth,XF 498; Log10 Concentration -8.0,101%
same,TGI,XF 498; PG=0,3.84 µM
same,GI50,XF 498; PG=+50,0.851 µM
same,CC50,"XF 498; read-out: LC-50, PG=-50",50.4 µM
same,Percent Growth,ACHN; [1],-92%
same,Percent Growth,ACHN; Log10 Concentration -5.0,30%
same,Percent Growth,"ACHN; Log10 Concentration -6.0, 1 µM",81%
same,Percent Growth,ACHN; [2],96%
same,Percent Growth,ACHN; Log10 Concentration -8.0,101%
same,TGI,ACHN; PG=0,17.6 µM
same,GI50,ACHN; PG=+50,4.02 µM
same,CC50,"ACHN; read-out: LC-50, PG=-50",45.1 µM
same,Percent Growth,SF-295; [1],-91%
same,Percent Growth,SF-295; Log10 Concentration -5.0,-31%
same,Percent Growth,"SF-295; Log10 Concentration -6.0, 1 µM",23%
same,Percent Growth,SF-295; [2],87%
same,Percent Growth,SF-295; Log10 Concentration -8.0,92%
same,TGI,SF-295; PG=0,2.68 µM
same,GI50,SF-295; PG=+50,0.381 µM
same,CC50,"SF-295; read-out: LC-50, PG=-50",20.7 µM
same,Percent Growth,SK-MEL-2; [1],-94%
same,Percent Growth,SK-MEL-2; Log10 Concentration -5.0,-92%
same,Percent Growth,"SK-MEL-2; Log10 Concentration -6.0, 1 µM",94%
same,Percent Growth,SK-MEL-2; [2],103%
same,Percent Growth,SK-MEL-2; Log10 Concentration -8.0,98%
same,TGI,SK-MEL-2; PG=0,3.2 µM
same,GI50,SK-MEL-2; PG=+50,1.72 µM
same,CC50,"SK-MEL-2; read-out: LC-50, PG=-50",5.96 µM
same,Percent Growth,NCI-H460; [1],-85%
same,Percent Growth,NCI-H460; Log10 Concentration -5.0,8%
same,Percent Growth,"NCI-H460; Log10 Concentration -6.0, 1 µM",78%
same,Percent Growth,NCI-H460; [2],91%
same,Percent Growth,NCI-H460; Log10 Concentration -8.0,99%
same,TGI,NCI-H460; PG=0,12.1 µM
same,GI50,NCI-H460; PG=+50,2.51 µM
same,CC50,"NCI-H460; read-out: LC-50, PG=-50",42.1 µM
same,Percent Growth,OVCAR-5; [1],-83%
same,Percent Growth,OVCAR-5; Log10 Concentration -5.0,19%
same,Percent Growth,"OVCAR-5; Log10 Concentration -6.0, 1 µM",97%
same,Percent Growth,OVCAR-5; [2],113%
same,Percent Growth,OVCAR-5; Log10 Concentration -8.0,108%
same,TGI,OVCAR-5; PG=0,15.2 µM
same,GI50,OVCAR-5; PG=+50,3.99 µM
same,CC50,"OVCAR-5; read-out: LC-50, PG=-50",47.4 µM
same,Percent Growth,UACC-62; [1],-84%
same,Percent Growth,UACC-62; Log10 Concentration -5.0,-91%
same,Percent Growth,"UACC-62; Log10 Concentration -6.0, 1 µM",92%
same,Percent Growth,UACC-62; [2],100%
same,Percent Growth,UACC-62; Log10 Concentration -8.0,106%
same,TGI,UACC-62; PG=0,3.18 µM
same,GI50,UACC-62; PG=+50,1.69 µM
same,CC50,"UACC-62; read-out: LC-50, PG=-50",5.99 µM
same,Percent Growth,M19-MEL; [1],-93%
same,Percent Growth,M19-MEL; Log10 Concentration -5.0,-91%
same,Percent Growth,"M19-MEL; Log10 Concentration -6.0, 1 µM",38%
same,Percent Growth,M19-MEL; [2],93%
same,Percent Growth,M19-MEL; Log10 Concentration -8.0,94%
same,TGI,M19-MEL; PG=0,1.98 µM
same,GI50,M19-MEL; PG=+50,0.605 µM
same,CC50,"M19-MEL; read-out: LC-50, PG=-50",4.83 µM
same,GI50,786-0; 786-0,0.523 µM
same,CC50,"786-0; 786-0, read-out: LC-50",37.3 µM
same,activity at 0.01 µM,786-0; [3],102%
same,activity at 0.1 µM,786-0; [3],96%
same,activity at 1 µM,786-0; [3],32%
same,activity at 10 µM,786-0; [3],3%
same,activity at 100 µM,786-0; [3],-90%
same,IC (TGI),"786-0; 786-0, read-out: TGI",10.7 µM
same,Percent Growth,HL-60 (TB); [1],-30%
same,Percent Growth,HL-60 (TB); Log10 Concentration -5.0,25%
same,Percent Growth,"HL-60 (TB); Log10 Concentration -6.0, 1 µM",102%
same,Percent Growth,HL-60 (TB); Log10 Concentration -8.0,111%
same,TGI,HL-60 (TB); PG=0,28.7 µM
same,GI50,HL-60 (TB); PG=+50,4.8 µM
same,CC50,"HL-60 (TB); read-out: LC-50, PG=-50",> 100 µM
same,Percent Growth,SNB-19; [1],-57%
same,Percent Growth,SNB-19; Log10 Concentration -5.0,-51%
same,Percent Growth,"SNB-19; Log10 Concentration -6.0, 1 µM",48%
same,Percent Growth,SNB-19; [2],97%
same,Percent Growth,SNB-19; Log10 Concentration -8.0,104%
same,TGI,SNB-19; PG=0,3.04 µM
same,GI50,SNB-19; PG=+50,0.897 µM
same,CC50,"SNB-19; read-out: LC-50, PG=-50",9.78 µM
same,Percent Growth,OVCAR-8; [1],-95%
same,Percent Growth,OVCAR-8; Log10 Concentration -5.0,-5%
same,Percent Growth,"OVCAR-8; Log10 Concentration -6.0, 1 µM",37%
same,Percent Growth,OVCAR-8; [2],81%
same,Percent Growth,OVCAR-8; Log10 Concentration -8.0,89%
same,TGI,OVCAR-8; PG=0,7.69 µM
same,GI50,OVCAR-8; PG=+50,0.516 µM
same,CC50,"OVCAR-8; read-out: LC-50, PG=-50",31.8 µM
same,GI50,KM20L2; KM-20L2,2.22 µM
same,CC50,"KM20L2; KM-20L2, read-out: LC-50",38 µM
same,activity at 0.01 µM,KM20L2; [4],106%
same,activity at 0.1 µM,KM20L2; [4],95%
same,activity at 1 µM,KM20L2; [4],73%
same,activity at 10 µM,KM20L2; [4],7%
same,activity at 100 µM,KM20L2; [4],-91%
same,IC (TGI),"KM20L2; KM-20L2, read-out: TGI",11.7 µM
same,Percent Growth,SK-MEL-5; [1],-90%
same,Percent Growth,SK-MEL-5; Log10 Concentration -5.0,-79%
same,Percent Growth,"SK-MEL-5; Log10 Concentration -6.0, 1 µM",77%
same,Percent Growth,SK-MEL-5; [2],94%
same,Percent Growth,SK-MEL-5; Log10 Concentration -8.0,92%
same,TGI,SK-MEL-5; PG=0,3.11 µM
same,GI50,SK-MEL-5; PG=+50,1.49 µM
same,CC50,"SK-MEL-5; read-out: LC-50, PG=-50",6.49 µM
